# Patent US20240109853A1 (Shanghai Yao Yuan Biotechnology Co., Ltd., priority 2020, published 2024)
# Structures can show the parent of a compound that is named as a salt.
# Molecular target: ALPK1 (Homo sapiens (Human), UniProt Q96QP1)
# Assay: ALPK1 in vitro kinase assay (HTRF of TIFA phosphorylation)
# Format: biochemical
# Conditions: ALPK1 2 nM, TIFA substrate, ADP-Heptose activator, HTRF readout
# Chain of ALPK1 (Q96QP1 whole entry): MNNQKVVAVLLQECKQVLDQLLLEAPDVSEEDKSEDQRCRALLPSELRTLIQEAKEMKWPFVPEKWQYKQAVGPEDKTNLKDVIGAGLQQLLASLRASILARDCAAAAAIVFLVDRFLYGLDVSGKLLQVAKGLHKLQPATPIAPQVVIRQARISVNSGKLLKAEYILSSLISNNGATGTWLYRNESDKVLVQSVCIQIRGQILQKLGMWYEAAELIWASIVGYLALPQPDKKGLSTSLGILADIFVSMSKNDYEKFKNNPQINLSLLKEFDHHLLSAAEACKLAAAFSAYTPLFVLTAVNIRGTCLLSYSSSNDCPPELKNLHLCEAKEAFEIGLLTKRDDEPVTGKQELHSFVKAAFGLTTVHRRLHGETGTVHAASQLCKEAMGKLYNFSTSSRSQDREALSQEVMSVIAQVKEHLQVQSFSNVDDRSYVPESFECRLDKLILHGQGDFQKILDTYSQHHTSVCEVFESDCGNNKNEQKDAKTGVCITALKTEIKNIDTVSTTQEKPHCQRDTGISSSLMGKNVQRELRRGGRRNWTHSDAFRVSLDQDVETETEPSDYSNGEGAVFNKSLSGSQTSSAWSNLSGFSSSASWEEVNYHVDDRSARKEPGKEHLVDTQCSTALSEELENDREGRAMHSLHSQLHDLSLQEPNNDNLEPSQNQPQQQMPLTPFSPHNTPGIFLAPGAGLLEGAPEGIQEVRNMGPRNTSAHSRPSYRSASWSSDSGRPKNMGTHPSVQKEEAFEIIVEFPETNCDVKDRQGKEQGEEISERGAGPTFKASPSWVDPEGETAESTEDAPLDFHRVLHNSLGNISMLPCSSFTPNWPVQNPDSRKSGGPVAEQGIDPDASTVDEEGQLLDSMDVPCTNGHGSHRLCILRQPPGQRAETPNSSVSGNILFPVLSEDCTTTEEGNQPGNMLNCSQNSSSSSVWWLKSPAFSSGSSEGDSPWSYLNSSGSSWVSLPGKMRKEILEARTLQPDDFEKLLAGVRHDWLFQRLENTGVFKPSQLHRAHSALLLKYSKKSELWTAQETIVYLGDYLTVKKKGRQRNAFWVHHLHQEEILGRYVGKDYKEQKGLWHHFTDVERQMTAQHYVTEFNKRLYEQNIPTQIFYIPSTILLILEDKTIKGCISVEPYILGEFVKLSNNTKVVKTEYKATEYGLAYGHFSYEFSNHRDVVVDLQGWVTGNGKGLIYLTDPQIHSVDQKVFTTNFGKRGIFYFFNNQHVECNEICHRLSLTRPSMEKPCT
row,Structure (SMILES),IC50 [nM]
1,"COc1ccc(C(C)(C)c2csc(NC(=O)c3ccc(N4CCNCC4)nc3)n2)cc1 [Example B042, N-(4-(2-(4-methoxyphenyl)propan-2-yl)thiazol-2-yl)-6-(piperazin-1-yl)nicotinamide]",86
2,"COc1ccc(C(C)(C)c2csc(NC(=O)c3ccc(N4CCC(N)C4)nc3)n2)cc1 (stereo not shown) [Example B043, 6-(3-aminopyrrolidin-1-yl)-N-(4-(2-(4-methoxyphenyl)propan-2-yl)thiazol-2-yl)nicotinamide]",140
3,"COc1ccc(C(C)(C)c2csc(NC(=O)c3ccc(N4CCNCC4)cn3)n2)cc1 [Example B044, N-(4-(2-(4-methoxyphenyl)propan-2-yl)thiazol-2-yl)-5-(piperazin-1-yl)picolinamide]",213
4,"Cc1ccc(C(C)(C)c2csc(NC(=O)c3ccc(N4CCNCC4)nc3)n2)cc1 [Example B045, 6-(piperazin-1-yl)-N-(4-(2-(p-tolyl)propan-2-yl)thiazol-2-yl)nicotinamide]",30
5,"Cc1ccc(C(C)(C)c2csc(NC(=O)c3ccc(CN4CCN(C)CC4)cc3)n2)cc1 [Example B046, 4-((4-methylpiperazin-1-yl)methyl)-N-(4-(2-(p-tolyl)propan-2-yl)thiazol-2-yl)benzamide]",28
6,"COc1ccc(C(C)(C)c2csc(NC(=O)c3ccc(C4CCNCC4)cc3)n2)cc1 [Example B047, N-(4-(2-(4-methoxyphenyl)propan-2-yl)thiazol-2-yl)-4-(piperidin-4-yl)benzamide hydrochloride]",128
7,"COc1ccc(C(C)(C)c2csc(NC(=O)c3ccc(C4(O)CCNCC4)cc3)n2)cc1 [Example B049, 4-(4-hydroxypiperidin-4-yl)-N-(4-(2-(4-methoxyphenyl)propan-2-yl)thiazol-2-yl)benzamide hydrochloride]",459
8,"COc1ccc(C(C)(C)c2csc(NC(=O)c3cc(I)cc(I)c3O)n2)cc1 [Example B050, 2-hydroxy-3,5-diiodo-N-(4-(2-(4-methoxyphenyl)propan-2-yl)thiazol-2-yl)benzamide]",77
9,"CC(C)(c1ccc(Br)cc1)c1csc(NC(=O)c2ccc(CN3CCN(CCO)CC3)nc2)n1 [Example B051, N-(4-(2-(4-bromophenyl)propan-2-yl)thiazol-2-yl)-6-((4-(2-hydroxyethyl)piperazin-1-yl)methyl)nicotinamide]",61
10,"COc1ccc(C(C)(C)c2csc(NC(=O)c3ccc(CN4CCN(CCO)CC4)nc3)n2)cc1 [Example B052, 6-((4-(2-hydroxyethyl)piperazin-1-yl)methyl)-N-(4-(2-(4-methoxyphenyl)propan-2-yl)thiazol-2-yl)nicotinamide]",111
11,"COc1ccc(C(C)(C)c2csc(NC(=O)c3ccc(N4CCN(CCO)CC4)nc3)n2)cc1 [Example B053, 6-(4-(2-hydroxyethyl)piperazin-1-yl)-N-(4-(2-(4-methoxyphenyl)propan-2-yl)thiazol-2-yl)nicotinamide]",104
12,"CC(C)(c1ccc(Br)cc1)c1csc(NC(=O)c2ccc(N3CCN(CCO)CC3)nc2)n1 [Example B054, N-(4-(2-(4-bromophenyl)propan-2-yl)thiazol-2-yl)-6-(4-(2-hydroxyethyl)piperazin-1-yl)nicotinamide]",269
13,"CN(C)CCNc1ccc(C(=O)Nc2nc(C(C)(C)c3ccc(Br)cc3)cs2)cn1 [Example B055, N-(4-(2-(4-bromophenyl)propan-2-yl)thiazol-2-yl)-6-((2-(dimethylamino)ethyl)amino)nicotinamide]",125
14,"COc1ccc(C(C)(C)c2csc(NC(=O)c3ccc(NCCN(C)C)nc3)n2)cc1 [Example B056, 6-((2-(dimethylamino)ethyl)amino)-N-(4-(2-(4-methoxyphenyl)propan-2-yl)thiazol-2-yl)nicotinamide]",120
15,"COCCOc1cc(C(=O)Nc2nc(C(C)(C)c3ccc(OC)cc3)cs2)ccc1N1CCNCC1 [Example B057, 3-(2-methoxyethoxy)-N-(4-(2-(4-methoxyphenyl)propan-2-yl)thiazol-2-yl)-4-(piperazin-1-yl)benzamide hydrochloride]",103
16,"Cc1ccc(C(C)(C)c2csc(NC(=O)c3ccc(CN4CCN(CCO)CC4)cc3)n2)cc1 [Example B058, 4-((4-(2-hydroxyethyl)piperazin-1-yl)methyl)-N-(4-(2-(p-tolyl)propan-2-yl)thiazol-2-yl)benzamide]",68
17,"Cc1ccc(C(C)(C)c2csc(NC(=O)c3ccc(CN4CCN(CCO)CC4)nc3)n2)cc1 [Example B059, 6-((4-(2-hydroxyethyl)piperazin-1-yl)methyl)-N-(4-(2-(p-tolyl)propan-2-yl)thiazol-2-yl)nicotinamide]",159
18,"COc1ccc(C(C)(C)c2csc(NC(=O)c3ccc(NCCO)cc3)n2)cc1 [Example B060, 4-((2-hydroxyethyl)amino)-N-(4-(2-(4-methoxyphenyl)propan-2-yl)thiazol-2-yl)benzamide]",280
19,"C#CC(C)(c1ccc(Cl)cc1)c1csc(NC(=O)c2ccc(N3CCNCC3)nc2)n1 (stereo not shown) [Example B061, N-(4-(2-(4-chlorophenyl)but-3-yn-2-yl)thiazol-2-yl)-6-(piperazin-1-yl)nicotinamide]",167

row,Structure (SMILES),IC50 [nM]
1,"C#CC(C)(c1ccc(Cl)cc1)c1csc(NC(=O)c2ccc(N3CCNCC3)cc2)n1 (stereo not shown) [Example B062, N-(4-(2-(4-chlorophenyl)but-3-yn-2-yl)thiazol-2-yl)-4-(piperazin-1-yl)benzamide]",12
2,"COc1ccc(C(C)(C)c2csc(NC(=O)c3ccc(OCC(C)O)cc3)n2)cc1 (stereo not shown) [Example B063, 4-(2-hydroxypropoxy)-N-(4-(2-(4-methoxyphenyl)propan-2-yl)thiazol-2-yl)benzamide]",245
3,"C#CC(C)(c1ccc(Cl)cc1)c1csc(NC(=O)c2c(F)ccc(OC)c2F)n1 (stereo not shown) [Example B064, N-(4-(2-(4-chlorophenyl)but-3-yn-2-yl)thiazol-2-yl)-2,6-difluoro-3-methoxybenzamide]",54
4,"C#CC(C)(c1ccc(Cl)cc1)c1csc(NC(=O)c2ccc(N3CCNCC3)cc2F)n1 (stereo not shown) [Example B065, N-(4-(2-(4-chlorophenyl)but-3-yn-2-yl)thiazol-2-yl)-2-fluoro-4-(piperazin-1-yl)benzamide]",215
5,"C#CC(C)(c1ccc(Cl)cc1)c1csc(NC(=O)c2ccc(N3CCNCC3)c(OC)c2)n1 (stereo not shown) [Example B066, N-(4-(2-(4-chlorophenyl)but-3-yn-2-yl)thiazol-2-yl)-3-methoxy-4-(piperazin-1-yl)benzamide]",184
6,"C#C[C@](C)(c1ccc(Cl)cc1)c1csc(NC(=O)c2ccc(N3CCNC(CO)C3)cc2)n1 (stereo partly shown) [Example B078, N-(4-(2-(4-chlorophenyl)but-3-yn-2-yl)thiazol-2-y1)-4-(3-(hydroxymethyl)piperazin-1-yl)benzamide]",169
7,"C#CC(C)(c1ccc(F)cc1)c1csc(NC(=O)c2ccc(N3CCNCC3)c(C(N)=O)c2)n1 (stereo not shown) [Example B081, N1-(4-(2-(4-fluorophenyl)but-3-yn-2-yl)thiazol-2-yl)-4-(piperazin-1-yl)isophthalamide]",102
8,"C#CC(C)(c1ccc(F)cc1)c1csc(NC(=O)c2c(F)cc(N3CCNC(CO)C3)cc2F)n1 (stereo not shown) [Example B082, 2,6-difluoro-N-(4-(2-(4-fluorophenyl)but-3-yn-2-yl)thiazol-2-yl)-4-(3-(hydroxymethyl)piperazin-1-yl)benzamide]",25
9,"C#CC(C)(c1ccc(Cl)cc1)c1csc(NC(=O)c2c(F)cc(N3CCNC(CO)C3)cc2F)n1 (stereo not shown) [Example B083, N-(4-(2-(4-chlorophenyl)but-3-yn-2-yl)thiazol-2-yl)-2,6-difluoro-4-(3-(hydroxymethyl)piperazin-1-yl)benzamide]",78
10,"C#CC(C)(c1ccc(OC)cc1)c1csc(NC(=O)c2c(F)cc(N3CCNC(CO)C3)cc2F)n1 (stereo not shown) [Example B084, 2,6-difluoro-4-(3-(hydroxymethyl)piperazin-1-yl)-N-(4-(2-(4-methoxyphenyl)but-3-yn-2-yl)thiazol-2-yl)benzamide]",28
11,C#C[C@](C)(c1ccc(Cl)cc1)c1csc(NC(=O)c2c(F)cc(N3CCC(N)C3)cc2F)n1 (stereo partly shown) [Example B086],286
12,"C#CC(C)(c1ccc(Cl)cc1)c1csc(NC(=O)c2ccc(N3CCNCC3)cc2F)n1 (stereo not shown) [Example B094, N-(4-(2-(4-chlorophenyl)but-3-yn-2-yl)thiazol-2-yl)-2-fluoro-4-(piperazin-1-yl)benzamide]",151
13,"C#CC(C)(c1ccc(Cl)cc1)c1csc(NC(=O)c2c(Cl)cc(N3CCNCC3)cc2Cl)n1 (stereo not shown) [Example B096, 2,6-dichloro-N-(4-(2-(4-chlorophenyl)but-3-yn-2-yl)thiazol-2-yl)-4-(piperazin-1-yl)benzamide]",312
14,"C#CC(C)(c1ccc(Cl)cc1)c1csc(NC(=O)c2c(F)cc(N3CCNCC3CC)cc2F)n1 (stereo not shown) [Example B101, N-(4-(2-(4-chlorophenyl)but-3-yn-2-yl)thiazol-2-yl)-4-(2-ethylpiperazin-1-yl)-2,6-difluorobenzamide]",70
15,"C#CC(C)(c1ccc(F)cc1)c1csc(NC(=O)c2c(F)cc(-c3cnn(C)c3N)cc2F)n1 (stereo not shown) [Example B102, 4-(5-amino-1-methyl-1H-pyrazol-4-yl)-2,6-difluoro-N-(4-(2-(4-fluorophenyl)but-3-yn-2-yl)thiazol-2-yl)benzamide]",1270
16,"C#CC(C)(c1ccc(F)cc1)c1csc(NC(=O)c2c(F)cc(-c3c[nH]n(C)c3=O)cc2F)n1 (stereo not shown) [Example B103, 2,6-difluoro-N-(4-(2-(4-fluorophenyl)but-3-yn-2-yl)thiazol-2-yl)-4-(2-methyl-3-oxo-2,3-dihydro-1H-pyrazol-4-yl)benzamide]",5140
17,"C#CC(C)(c1ccc(F)cc1)c1csc(NC(=O)c2c(F)cc(-c3cnc(CN)cn3)cc2F)n1 (stereo not shown) [Example B104, 4-(5-(aminomethyl)pyrazin-2-yl)-2,6-difluoro-N-(4-(2-(4-fluorophenyl)but-3-yn-2-yl)thiazol-2-yl)benzamide]",1470
18,"CC(c1ccc(Cl)cc1)c1csc(NC(=O)c2c(F)cc(N3CCNCC3)cc2F)n1 (stereo not shown) [Example C003, N-(4-(1-(4-chlorophenyl)ethyl)thiazol-2-yl)-2,6-difluoro-4-(piperazin-1-yl)benzamide]",11
